Laboratory results taken from publication PMC9519446, “Discovery of an Orally Active Benzoxaborole Prodrug Effective in the Treatment of Chagas Disease in Non-human Primates” (Nature microbiology, 2022).
Where “and” joins values, the source holds several entries; their conditions need not be identical. Identical values can stand only once. Entries after “also recorded” stand apart in the source; their conditions may differ. Like-named read-outs stand apart in the source and are kept apart here. Marks after values point to notes of the source that are not given here.

Assays:
[1] = NHP bodyweights; type: in vivo, rhesus macaques (Macaca mulatta); settings: individual treated macaques
Protocol: (§1) Under light-anesthesia/sedation, peripheral blood samples were collected from each animal prior to treatment and at 7 time points following. Blood analysis (CBC and serum chemistry assays) and physical exams to evaluate the health of the study animals were performed on each animal prior to the beginning of the study and also at three time points during the treatment protocol (see Supplementary data).

[2] = Pharmacokinetic (PK) analysis in NHP; type: in vivo, rhesus macaques (Macaca mulatta); settings: 30 mg/kg dose
Protocol: Mid- and end-regimen PK assessments were also performed. […] Only 1 blood sample was collected at a single time point from each of the 18 animals. […] The plasma samples were provided to Pharmout Labs (Fremont, California) for analysis using LC-MS/MS. […] For calculation of PK parameters, the Cmax (maximum concentrations) and tmax (time to maximum concentrations) were determined by visual inspection of the plasma concentration vs. time curves from the pre-regimen and end-regimen periods. PK calculation was not performed for the mid-regimen PK samples since only 2 time points were collected. The AUC values for the pre- and end-regimen were calculated using the linear-trapezoidal rule with the following equation: AUC(t1-t2)=[(Ct2+Ct1)x(t2-t1)]/2 where t1 and t2 are consecutive sampling time points, AUC(t1-t2) is the fractional area-under-the-curve over time intervals t1 and t2, Ct2 is the concentration at time t2, Ct1 is the concentration at time t1. […] AUC0-∞ was estimated using the following equation: AUC0-∞=[…] Where AUC0-∞ was AUC from zero to infinity, AUClast was the AUC from zero to the last measurable time point, Clast was the concentration at the last measurable time point. AUC0-∞ and t1/2 were not estimated when the terminal elimination phase was not defined. Plasma clearance (CLp) after the IV dose was estimated using the following: CLp = Dose/AUC0-∞.

[3] = Plasma protein binding (rat); type: in vitro ADME
[4] = test system: T. cruzi (naturally acquired infection); experiment: NHP treatment study: blood qPCR for T. cruzi DNA; type: in vivo, rhesus macaques (Macaca mulatta)
Text: A total of 22 rhesus macaques that had been confirmed to be serologically- and PCR-positive for T. cruzi were utilized in these studies. Using 19 animals in the treatment group provided 85% power of detecting 100% efficacy. […] The remaining three animals on the study were maintained as untreated control animals and received food treats but were not dosed with AN15368.
Blood samples from each macaque were collected at various time points and processed for quantification of T. cruzi DNA by real-time qPCR. Between 8-10ml of whole blood collected in EDTA anticoagulant tubes was subjected to DNA extraction using the Omega E.Z.N.A. Blood DNA Maxi Kit (Omega Bio-Tek), following the manufacturer’s instructions for up to 10 ml whole blood and using a total of 650 μl of elution buffer. Each round of extractions included a negative (no-template) control comprised of 10 ml PBS. The concentration of DNA in the eluted solution was quantified after each extraction using an Epoch microplate spectrophotometer (BioTek).
DNA from each sample was then subjected to a series of two qPCR assays for detection of T. cruzi satellite DNA. The first qPCR used the cruzi 1, 2 primer set and cruzi 3 TaqMan probe as previously described, [54], using BioRad iTaq Universal Probes Supermix (Bio-Rad). […] We selected FAM and VIC channels for each read.

[5] = NHP necropsy histology (lesions that could be consistent with Chagas); type: in vivo, rhesus macaques (Macaca mulatta); set-up: key to Skel mm, lesion grade / Small Int, lesion grade / Large Int, lesion grade / Heart, lesion grade: 0 (unlikely Chagas-related pathology); 5 (likely Chagas-related pathology); settings: individual treated macaques T1-T9 at necropsy
Protocol: as §1

[6] = test system: T. cruzi extracellular amastigotes; experiment: Extracellular amastigote assay (ATPlite luminescence, 48 hours); type: cell-based; settings: Trypanosoma cruzi
Protocol: The in vitro anti-T. cruzi amastiogote activity assay was performed and optimized based on the protocol described previously. The change in tdTomato fluorescence intensity was determined as a measurement of growth over 72 hours of culture. For assaying drug effects on extracellular amastigotes, trypomastigotes were collected from infected Vero cell cultures and converted in acidic media as previously described. Amastigotes (50,000/well) were incubated with 2-fold serial dilutions of compounds for 48 hours. The ATP production was used as an indication of growth in this case, and was measured by ATPlite Luminescence ATP Detection Assay System (PerkinElmer). Both fluorescence and luminescence were read using a BioTek Synergy Hybrid Multi-Mode reader equipped with the software Gene5 v 2.0 (BioTek). The dose-response curve was generated by […] analysis with GraphPad Prism v9.4.0 (GraphPad Software).

## Cc1c(C(=O)N[C@H](C(=O)OCC2CCOCC2)C(C)C)ccc2c1B(O)OC2 [AN15368]
[1]
  bodyweight at end of study (remark): Weighed less at end of study
[1]; weighing 2017-09-11/12
  Bodyweights: 6.37 kg and 8.90 kg and 7.40 kg and 5.20 kg and 6.40 kg and 6.70 kg and 7.70 kg and 7.60 kg and 7.10 kg and 6.30 kg and 7.20 kg and 7.30 kg
[1]; weighing 2017-10-18/19
  Bodyweights: 7.00 kg and 9.40 kg and 7.50 kg and 5.30 kg and 6.60 kg and 7.10 kg and 8.00 kg and 7.70 kg and 7.20 kg and 6.40 kg
[1]; weighing 2017-11-16
  Bodyweights: 7.30 kg and 9.70 kg and 7.70 kg and 5.50 kg and 6.90 kg and 8.30 kg and 7.00 kg and 6.70 kg and 7.90 kg
[1]; weighing 2017-12-05/06
  Bodyweights: 7.50 kg and 9.70 kg and 7.80 kg and 5.80 kg and 6.90 kg and 7.10 kg and 8.10 kg and 7.00 kg and 8.40 kg
[1]; weighing 2017-12-19/20
  Bodyweights: 7.50 kg and 9.70 kg and 7.60 kg and 5.50 kg and 6.50 kg and 6.70 kg and 8.10 kg and 7.40 kg and 6.60 kg and 7.90 kg and 7.70 kg
[1]; weighing 2018-01-08/09
  Bodyweights: 7.60 kg and 9.80 kg and 7.80 kg and 5.40 kg and 6.60 kg and 6.80 kg and 8.20 kg and 6.90 kg and 7.00 kg
[1]; weighing 2018-01-22/23
  Bodyweights: 7.60 kg and 9.95 kg and 7.90 kg and 5.60 kg and 6.80 kg and 7.15 kg and 8.25 kg and 7.65 kg and 6.85 kg and 8.10 kg and 8.20 kg
[1]; weighing 2018-02-26/27
  Bodyweights: 8.05 kg and 10.20 kg and 7.90 kg and 5.70 kg and 6.95 kg and 7.25 kg and 8.45 kg and 7.80 kg and 7.30 kg and 8.35 kg and 8.25 kg
[1]; weighing 2018-03-26/27
  Bodyweights: 8.00 kg and 10.15 kg and 5.75 kg and 7.00 kg and 7.55 kg and 8.65 kg and 7.85 kg and 6.95 kg and 7.50 kg and 8.20 kg and 8.75 kg
[1]; weighing 2018-04-09/10/11
  Bodyweights: 7.95 kg and 10.20 kg and 8.10 kg and 5.90 kg and 6.85 kg and 7.15 kg and 8.70 kg
[2]
  exposure: 3.5 to 4.7 µg·h/kg
[3]
  Funbound (rat): 10%
[4]; 30 mg/kg/day oral 60 days, all time points after end of treatment
  parasite DNA in blood (in words): negative
[4]; naturally infected NHPs, 30 mg/kg/day 60 days
  efficacy / cure: 100%
[5]
  Heart, lesion grade: 1* and 0 and 2* and 3*
  Histology Comments: Heart- mutifocal areas of mild epicarditis; also recorded: No overt pathology identified; also recorded: Sk mm- mild focal area of neutrophilic and lymphocytic inflammation Small int- prominent villar tip necrosis/apoptosis, multifocal Lrg Int- focal area of mild lymphohistiocytic inflammation in muscularis; also recorded: Heart- Multifocal areas of mild lymphohistiocytic inflammation/myofiber loss; regional area of mild-moderate myocardial fibrosis; intravascular bacterial or fungal thrombus. Heart lesions are likely related to thromus/infection but Chagas can't be ruled out; also recorded: Sk mm- Multifocal areas of mild lymphohistiocytic inflammation and myofiber loss; Lrg Int- Mild diffsue lymphoplasmactic colitis; focal area of mild lymphohistiocytic inflammation in muscularis; also recorded: Heart - multiple foci of mild lymphoctic inflammation Sk mm-one section has acute myofiber degeneration (ketamine artifact) Small int- prominent villar tip necrosis/apoptosis, multifocal; also recorded: Heart- multifocal areas of mild to moderate myocardial, subepicardial, and perivascular lymphohistiocytic and plasmacytic inflammation; regional area of mild-moderate myocardial fibrosis
  Large Int, lesion grade: 0 and 1*
  Skel mm, lesion grade: 0 and 1* and 2*
  Small Int, lesion grade: 0

## Cc1c(C(=O)NC(C(=O)OCc2ccc(F)c(F)c2)C(C)C)ccc2c1B(O)OC2 (stereo not shown) [AN14353]
[6]; WT extracellular amastigotes, Fig. 2c, read-out: WT IC50
  IC50: 0.5 nM
[6]; extracellular amastigotes, Fig. 2a, read-out: Extracellular IC50
  IC50: 0.1 nM
